Reference: the NIST ThermoML archive (doi:10.1016/j.tca.2017.06.023)

What was measured:
[1] = xn = mol fraction of the nth substance listed; conditions: 100 kPa, Liquid; for viscosity: Capillary tube (Ostwald / Ubbelohde) method; for speed of sound: Frequency=3 MHz, Sing-around technique in a fixed-path interferometer; for mass density: Vibrating tube method
[2] = refractive index (Na D-line) (dimensionless); xn = mol fraction of the nth substance listed; conditions: 100 kPa, Liquid, Standard Abbe refractometry

CC(=O)N(C)C [N,N-dimethylethanamide] + CCC(C)O
Conditions	mass density, [1] [kg/m3]	refractive index, [2]	speed of sound, [1] [m/s]	viscosity, [1] [mPa·s]
283.15 K, x1 = 0.062	823.15	1.40382	1280.8	4.37
283.15 K, x1 = 0.0926	827.08	1.40505	1288	3.888
283.15 K, x1 = 0.2101	842.13	1.4098	1314.5	2.795
283.15 K, x1 = 0.3084	854.75	1.41377	1337	2.363
283.15 K, x1 = 0.4084	867.81	1.41785	1360.1	2.043
283.15 K, x1 = 0.5009	880.22	1.42168	1382.3	1.833
283.15 K, x1 = 0.6002	893.87	1.42583	1407.2	1.662
283.15 K, x1 = 0.7001	907.96	1.43002	1433	1.518
283.15 K, x1 = 0.8035	922.69	1.43437	1461.3	1.418
283.15 K, x1 = 0.9004	936.39	1.43847	1488.8	1.318
283.15 K, x1 = 0.9572	944.31	1.44089	1505	1.258
283.15 K, x1 = 1	950.13	1.44273	1516.8	1.168
298.15 K, x1 = 0.062	810.77	1.39766	1226.5	2.545
298.15 K, x1 = 0.0926	814.69	1.39889	1233.5	2.345
298.15 K, x1 = 0.2101	829.59	1.40356	1259.8	1.839
298.15 K, x1 = 0.3084	842.09	1.40746	1281.4	1.593
298.15 K, x1 = 0.4084	855.06	1.41148	1303.8	1.427
298.15 K, x1 = 0.5009	867.31	1.41524	1324.9	1.316
298.15 K, x1 = 0.6002	880.82	1.41929	1349	1.233
298.15 K, x1 = 0.7001	894.7	1.42339	1374.8	1.151
298.15 K, x1 = 0.8035	909.23	1.42765	1402.4	1.066
298.15 K, x1 = 0.9004	922.74	1.43165	1428.8	1.02
298.15 K, x1 = 0.9572	930.54	1.43402	1443.3	0.967
298.15 K, x1 = 1	936.29	1.43579	1453.7	0.93
313.15 K, x1 = 0.062	797.87	1.39127	1172.2	1.587
313.15 K, x1 = 0.0926	801.76	1.39248	1179.1	1.501
313.15 K, x1 = 0.2101	816.61	1.39714	1205	1.274
313.15 K, x1 = 0.3084	829.07	1.40103	1226.2	1.146
313.15 K, x1 = 0.4084	841.93	1.40501	1247.8	1.048
313.15 K, x1 = 0.5009	854.12	1.40873	1268.8	0.979
313.15 K, x1 = 0.6002	867.53	1.41274	1292.5	0.927
313.15 K, x1 = 0.7001	881.27	1.4168	1317.7	0.888
313.15 K, x1 = 0.8035	895.63	1.42098	1345.2	0.857
313.15 K, x1 = 0.9004	909.02	1.42492	1370.2	0.819
313.15 K, x1 = 0.9572	916.72	1.42725	1384	0.791
313.15 K, x1 = 1	922.43	1.42901	1393.3	0.764
